Laboratory results taken from PMC8260592 (Scientific Reports, 2021).
Converted amounts (≈) assume the structure as drawn. “Also recorded” adds a separate entry of the source. Like-named read-outs stand apart in the source and are kept apart here.

Tests used:
[1] = target: AChE (Type VI-S from Electrophorus electricus) (Electrophorus electricus, UniProt O42275); assay: biochemical; settings: for SI: IC50 for BChE divided by IC50 for AChE; for remaining activity at 10 µM: read-out: Residual activity at 10 µM (%) AChE; for inhibition at 10 µM: read-out: Inhibition of AChE
AChE (Type VI-S from Electrophorus electricus), sequence (O42275 24-633): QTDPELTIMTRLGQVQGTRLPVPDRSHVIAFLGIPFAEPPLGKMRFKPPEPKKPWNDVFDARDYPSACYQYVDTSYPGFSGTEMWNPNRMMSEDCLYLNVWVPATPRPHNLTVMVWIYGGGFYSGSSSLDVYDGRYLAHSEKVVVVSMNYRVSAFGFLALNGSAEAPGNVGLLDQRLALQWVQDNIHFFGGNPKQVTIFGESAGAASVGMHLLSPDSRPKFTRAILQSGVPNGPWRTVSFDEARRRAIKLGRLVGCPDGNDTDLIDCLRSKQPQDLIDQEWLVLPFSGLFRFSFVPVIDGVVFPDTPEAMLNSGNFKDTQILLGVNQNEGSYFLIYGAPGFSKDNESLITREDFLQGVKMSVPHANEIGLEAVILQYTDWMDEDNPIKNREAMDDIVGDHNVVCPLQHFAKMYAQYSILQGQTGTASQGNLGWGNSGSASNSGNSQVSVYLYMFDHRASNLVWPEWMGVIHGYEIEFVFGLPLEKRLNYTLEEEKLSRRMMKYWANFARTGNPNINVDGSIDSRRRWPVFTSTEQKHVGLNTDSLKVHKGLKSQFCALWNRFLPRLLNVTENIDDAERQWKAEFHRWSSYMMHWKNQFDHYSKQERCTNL
Experimental: (§1) AChE and BChE inhibitory activities were measured after preincubating enzymes with inhibitors for 15 min before adding substrates (ATCI and BTCI, respectively) and DTNB. AChE activities were assayed as previously described, with slight modification[21],[22]. […] MAO-A and MAO-B activities were determined using a continuous spectrophotometric method, as described previously[23],[24]. […] Reaction rates are expressed as changes in absorbance per min. […]

BChE (equine serum) = target: T1, BChE (equine serum) (Equus caballus, UniProt P81908); assay: biochemical; settings: for remaining activity at 10 µM: read-out: Residual activity at 10 µM (%) BChE
T1 construct: BChE (equine serum); purchased Sigma-Aldrich; host or cells: equine serum
T1 sequence (P81908 whole entry): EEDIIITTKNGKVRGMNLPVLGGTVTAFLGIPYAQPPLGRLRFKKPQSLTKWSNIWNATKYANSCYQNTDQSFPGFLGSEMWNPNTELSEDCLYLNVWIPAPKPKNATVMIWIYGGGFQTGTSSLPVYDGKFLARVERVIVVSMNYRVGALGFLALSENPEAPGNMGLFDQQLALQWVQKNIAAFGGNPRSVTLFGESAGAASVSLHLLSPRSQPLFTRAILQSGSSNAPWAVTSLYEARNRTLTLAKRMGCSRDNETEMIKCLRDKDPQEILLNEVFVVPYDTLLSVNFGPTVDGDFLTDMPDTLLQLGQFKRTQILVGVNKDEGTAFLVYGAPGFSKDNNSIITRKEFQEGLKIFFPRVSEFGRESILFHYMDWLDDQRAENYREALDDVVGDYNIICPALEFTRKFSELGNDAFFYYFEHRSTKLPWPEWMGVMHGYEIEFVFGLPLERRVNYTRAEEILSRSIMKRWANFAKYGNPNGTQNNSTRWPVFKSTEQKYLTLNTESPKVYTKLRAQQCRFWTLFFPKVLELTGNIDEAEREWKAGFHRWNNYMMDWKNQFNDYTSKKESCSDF
Experimental: as §1

MAO-B [2] = target: T2, MAO-B (Homo sapiens, UniProt P27338); assay: biochemical; settings: for IC50: read-out: IC50 (µM) MAO-B; for remaining activity at 10 µM: read-out: Residual activity at 10 µM (%) MAO-B
T2 construct: purchased Sigma-Aldrich
T2 sequence (P27338 1-520): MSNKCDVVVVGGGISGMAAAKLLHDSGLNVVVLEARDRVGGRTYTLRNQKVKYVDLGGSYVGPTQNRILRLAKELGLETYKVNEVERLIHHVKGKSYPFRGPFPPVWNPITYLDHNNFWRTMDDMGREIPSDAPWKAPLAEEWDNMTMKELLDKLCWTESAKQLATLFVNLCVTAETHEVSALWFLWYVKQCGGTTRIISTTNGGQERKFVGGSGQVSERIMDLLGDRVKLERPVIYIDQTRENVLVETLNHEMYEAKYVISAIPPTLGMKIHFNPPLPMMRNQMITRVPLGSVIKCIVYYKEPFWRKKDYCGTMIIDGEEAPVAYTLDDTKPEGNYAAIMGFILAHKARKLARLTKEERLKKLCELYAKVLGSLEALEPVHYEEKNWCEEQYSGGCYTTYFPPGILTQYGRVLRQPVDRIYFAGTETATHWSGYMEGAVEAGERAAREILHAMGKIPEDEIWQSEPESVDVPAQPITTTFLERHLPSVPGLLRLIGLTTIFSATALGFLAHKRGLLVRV
Experimental: (§2) AChE and BChE inhibitory activities were measured after preincubating enzymes with inhibitors for 15 min before adding substrates (ATCI and BTCI, respectively) and DTNB. AChE activities were assayed as previously described, with slight modification[21],[22]. […] MAO-A and MAO-B activities were determined using a continuous spectrophotometric method, as described previously[23],[24]. […] Reaction rates are expressed as changes in absorbance per min.
(§3) Inhibitory patterns and Ki values were determined using Lineweaver–Burk (LB) plots and secondary plots of LB slopes.

Recombinant human MAO-A = target: T3, Recombinant human MAO-A (Homo sapiens, UniProt P21397); assay: biochemical; settings: for IC50: read-out: IC50 (µM) MAO-A; for remaining activity at 10 µM: read-out: Residual activity at 10 µM (%) MAO-A
T3 construct: purchased Sigma-Aldrich
T3 sequence (P21397 1-527): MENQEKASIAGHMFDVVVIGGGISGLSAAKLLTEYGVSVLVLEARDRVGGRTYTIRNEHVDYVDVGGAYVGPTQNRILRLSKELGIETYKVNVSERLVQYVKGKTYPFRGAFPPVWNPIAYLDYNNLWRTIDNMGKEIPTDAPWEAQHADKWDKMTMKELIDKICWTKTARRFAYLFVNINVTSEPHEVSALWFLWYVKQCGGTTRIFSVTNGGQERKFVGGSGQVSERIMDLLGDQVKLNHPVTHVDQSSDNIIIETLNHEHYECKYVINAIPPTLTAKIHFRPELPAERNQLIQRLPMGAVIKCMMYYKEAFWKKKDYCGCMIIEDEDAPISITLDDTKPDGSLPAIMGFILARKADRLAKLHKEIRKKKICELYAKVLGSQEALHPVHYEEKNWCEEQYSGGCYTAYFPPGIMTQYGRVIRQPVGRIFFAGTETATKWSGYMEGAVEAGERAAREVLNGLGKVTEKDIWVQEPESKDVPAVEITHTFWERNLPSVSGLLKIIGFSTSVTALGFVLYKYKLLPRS
Experimental: as §2, §3

BACE-1 = target: T4, BACE-1 (Homo sapiens, UniProt P56817); assay: BACE-1 activity detection kit (fluorescence); format: biochemical; settings: read-out: Residual activity at 10 µM (%) BACE-1
T4 construct: purchased Sigma-Aldrich
T4 sequence (P56817 46-457): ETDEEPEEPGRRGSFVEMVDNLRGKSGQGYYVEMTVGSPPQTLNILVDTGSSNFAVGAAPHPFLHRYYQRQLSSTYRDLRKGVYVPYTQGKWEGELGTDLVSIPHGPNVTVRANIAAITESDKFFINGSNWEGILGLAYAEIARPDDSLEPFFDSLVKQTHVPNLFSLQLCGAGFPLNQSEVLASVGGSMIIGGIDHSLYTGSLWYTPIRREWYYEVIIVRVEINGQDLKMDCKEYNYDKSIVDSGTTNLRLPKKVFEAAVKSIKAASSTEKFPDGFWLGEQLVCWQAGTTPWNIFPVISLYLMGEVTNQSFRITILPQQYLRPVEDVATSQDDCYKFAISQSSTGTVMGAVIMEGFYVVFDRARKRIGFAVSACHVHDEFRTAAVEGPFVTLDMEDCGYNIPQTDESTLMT

AChE [3] = target: T5, AChE (Electrophorus electricus, UniProt O42275); assay: Reversibility of AChE inhibition by dialysis; format: biochemical
T5 sequence (O42275 24-633): as the sequence (O42275 24-633) above
Experimental: (§4) After preincubating three compounds or reference inhibitors with enzymes for 15 min, residual activities of undialyzed (AU) and dialyzed (AD) samples were expressed as percentages of those of non-inhibitor treated controls. Reversibilities were assessed using AU and AD values and compared with those of reference compounds.
(§5) After preincubating the compounds with enzymes for 15 min, the mixtures were dialyzed for 6 h with two buffer changes. Results are the averages of duplicate or triplicate experiments.

MAO-B [4] = target: T2, MAO-B; assay: Reversibility of MAO-B inhibition by dialysis; format: biochemical
Experimental: as §4, §5

AChE [5] = target: T5, AChE; assay: Kinetics of AChE inhibition (Lineweaver-Burk and secondary plots); format: biochemical; settings: for Mode of AChE inhibition: LB plots; for Ki: secondary plots of LB slopes, substrate 0.05-1.0 mM, read-out: Ki for AChE
Experimental: as §3
Substrate concentrations ranged from 0.05 to 1.0 mM. […] Initial reaction rates are expressed as increases in absorbance per min.

MAO-B [6] = target: T2, MAO-B; assay: Kinetics of MAO-B inhibition (Lineweaver-Burk and secondary plots); format: biochemical
Experimental: as §3

[7] = system: Madin-Darby canine kidney (MDCK) cells; assay: Cytotoxicity test, CCK-8 assay; settings: 50 µM, 24 h, CCK-8
Experimental: (§6) Madin-Darby canine kidney (MDCK) cells and human acute promyelocytic leukemia (HL-60) cells were obtained from the Korean Cell Line Bank (Seoul, Korea). […] Cultures were maintained at 37 °C under 5% CO2, and media were changed every two days.
(§7) Cell viabilities were determined using the CCK-8 assay. Briefly, MDCK cells or HL-60 cells were resuspended at 1 × 10^5 or 3 × 10^5 cells/mL and suspensions (100 µL) were added to wells of a 96-well plate and incubated in 5% CO2 atmosphere at 37 °C for 24 h. After incubation, 100 µL of each medium was treated with compounds at 1, 3, 10, 30, or 50 µM and incubated in 5% CO2 at 37 °C for 24 h. CCK-8 (10 µL/well) was then added to 100 µL aliquots from each cell and incubated 2–4 h. Absorbances were measured at 450 nm using a microplate reader (Versamax, Molecular Devices, San Jose, CA, USA).
(§8) Both cell lines were treated with each compound (at 1, 3, 10, 30, or 50 µM) for 24 h. Culture supernatants were then removed and CCK-8 was added. […] Data are expressed as the means ± SDs of triplicate experiments.

[8] = system: human acute promyelocytic leukemia (HL-60) cells; assay: Cytotoxicity test, CCK-8 assay; settings: 50 µM, 24 h, CCK-8
Experimental: as §6, §7, §8

[9] = Cytotoxicity test, CCK-8 assay
Experimental: as §6, §7, §8

AChE [10] = settings: cited from earlier work

| SMILES | IC50 [1] [µM] | SI [1] | remaining activity at 10 µM [1] [%] | IC50 (BChE (equine serum)) [µM] | remaining activity at 10 µM (BChE (equine serum)) [%] | IC50 (MAO-B [2]) [µM] | remaining activity at 10 µM (MAO-B [2]) [%] | IC50 (Recombinant human MAO-A) [µM] | remaining activity at 10 µM (Recombinant human MAO-A) [%] | remaining activity at 10 µM (BACE-1) [%] | further results |
| --- | --- | --- | --- | --- | --- | --- | --- | --- | --- | --- | --- |
| O=C(OCc1cc(O)c(O[C@@H]2O[C@H](CO)[C@@H](O)[C@H](O)[C@H]2O)c(O)c1)c1cc(O)c(O)c(Oc2c(C(=O)OCc3cc(O)c(O[C@@H]4O[C@H](CO)[C@@H](O)[C@H](O)[C@H]4O)c(O)c3)cc(O)c(O)c2O)c1 [Compound 1, chestanin] | 37 ± 3 | > 1.1 | 72.5 ± 2.1 | > 40 | 96.2 ± 3.9 | > 40 | 67.2 ± 8.1 | > 40 | 91.7 ± 1.6 | 78.9 ± 0.3 |  |
| COc1cc2c(=O)oc3c(OC)c(O[C@@H]4O[C@H](CO)[C@@H](O)[C@H](O)[C@H]4O)cc4c(=O)oc(c1OC)c2c34 [Compound 2, 4′-O-(β-D-glucopyranosyl)-3,3′,4-tri-O-methylellagic acid] | 46.4 ± 2.7 | > 0.9 | 70.5 ± 5 | > 40 | 90.8 ± 4.2 | > 40 | 60.9 ± 5.2 | > 40 | 91.3 ± 7.9 | 91.9 ± 1 |  |
| COc1cc2c(=O)oc3c(OC)c(O[C@@H]4O[C@@H](C)[C@H](O)[C@@H](O)[C@H]4O)cc4c(=O)oc(c1OC)c2c34 [Compound 3, 4′-O-(α-L-rhamnopyranosyl)-3,3′,4-tri-O-methylellagic acid] | 10.1 ± 0.4 | > 4.0 | 55.4 ± 3.4 | > 40 | 83.3 ± 2.1 | 7.27 ± 0.16 | 43.2 ± 3.7 | > 40 | 83 ± 6.3 | 99.7 ± 0.4 | inhibition at 10 µM [1]: ~50%; inhibition at 10 µM (MAO-B [2]; 10 µM): > 50%; Reversibility of AChE inhibition (AChE [3]): reversibly; also recorded: reversible inhibitors; Reversibility of MAO-B inhibition (MAO-B [4]): reversible inhibitors; Mode of AChE inhibition (AChE [5]): competitively; also recorded: competitive but partly mixed; also recorded: competitive but partially mixed; Ki (AChE [5]): 5.37 ± 0.62 µM; Mode of MAO-B inhibition (MAO-B [6]; LB plots): competitive; Ki (MAO-B [6]; secondary plots of LB slopes, substrate 0.0375-0.6 mM, read-out: Ki for MAO-B): 2.25 ± 0.01 µM; MDCK cell viability [7]: slightly or non-toxic; also recorded: negligible effects; also recorded: non-toxic or slightly toxic; HL-60 cell viability [8]: negligible effects; also recorded: non-toxic or slightly toxic |
| COc1cc2c(=O)oc3c(OC)c(O)cc4c(=O)oc(c1OC)c2c34 [Compound 4, 3,3′,4-tri-O-methylellagic acid] | 10.7 ± 1 | > 3.7 | 53.2 | > 40 | 92.3 ± 2.3 | > 40 | 89.1 ± 4.1 | > 40 | 83.1 ± 4.7 | 90.1 ± 0.4 | inhibition at 10 µM [1]: ~50%; Reversibility of AChE inhibition (AChE [3]): reversibly; also recorded: reversible inhibitors; Mode of AChE inhibition (AChE [5]): competitively; also recorded: competitive but partly mixed; also recorded: competitive but partially mixed; Ki (AChE [5]): 3.74 ± 0.26 µM; viability at 24 h, 50 µM ([9]; dog, MDCK cells): 67.9%; viability at 24 h, 50 µM ([9]; human, HL-60 cells): 84.6%; MDCK cell viability [7]: slightly or non-toxic; also recorded: non-toxic or slightly toxic; HL-60 cell viability [8]: non-toxic or slightly toxic |
| COc1cc(/C=C/C(=O)CC(=O)/C=C/c2ccc(O)c(OC)c2)ccc1O [curcumin] |  |  |  |  |  |  |  |  |  |  | IC50 (AChE [10]; ref 51): 23.5 µM |
| O=C(O[C@@H]1Cc2c(O)cc(O)cc2O[C@@H]1c1cc(O)c(O)c(O)c1)c1cc(O)c(O)c(O)c1 [epigallocatechin gallate] |  |  |  |  |  |  |  |  |  |  | IC50 (AChE [10]; ref 52): 14.8 µM |
